Earlier results on 1 compound are cited in US20110177168A1, “COMPOSITION” (SmithKline Beecham Limited, priority 2000, published 2011).

Setting [1] is: oral doses of conventional immediate release tablets.

Usually bioavailability stands for dose-corrected exposure relative to a reference, in per cent. Take `CC(=O)Nc1ccc(O)cc1` [paracetamol, N-acetyl-p-aminophenol]: under setting [1], the bioavailability is 80% and the tmax was 30 to 90 min. In addition, the elimination half-life (reported) was 1.9 to 2.5 h.
